Reference: US20110182946A1, “Formation of Nanostructured Particles of Poorly Water Soluble Drugs and Recovery by Mechanical Techniques” (BOARD OF REGENTS, THE UNIVERSITY OF TEXAS SYSTEM, priority 2008, published 2011)
Values after ≈ are worked out from the molar mass of the structure shown.

Columns and labels:
[1] = pH 6.8 buffer without addition of 0.17% SDS; cited from earlier work
[2] = Equilibrium solubility of crystalline ITZ; type: physicochemical; settings: thermodynamic from solid

solubility thermodynamic ([2]; acidic media, pH 1.2, simulated gastric fluid): 4.4 µg/mL (≈ 6.24 µM)
solubility at 18 h ([2]; pH 6.8 phosphate buffer with 0.17% SDS, aqueous with cosolvent or surfactant or cyclodextrin, pH 6.8 media with 0.17% SDS, 37.2° C.): 14 µg/mL (≈ 19.8 µM)
Structure (SMILES): CCC(C)n1ncn(-c2ccc(N3CCN(c4ccc(OCC5COC(Cn6cncn6)(c6ccc(Cl)cc6Cl)O5)cc4)CC3)cc2)c1=O (stereo not drawn) [ITZ, itraconazole]
equilibrium solubility [1]: about 1 ng/mL
